What was measured:
[1] = test system: lactate dehydrogenase (LDH) in bovine pulp; test: Residual LDH activity in calf pulp after treatment; format: biochemical
Source text: (§1) Two assays were used to evaluate the effectiveness of the composition of the present invention as a pulpotomy agent. The first was based on the diffusion of bovine serum albumin (BSA) from collagen-BSA gel wafers following fixation. That methodology was based on the method described in Flitney, F. W., "The time course of the fixation of albumin by formaldehyde, glutaraldehyde, acrolein and other higher aldehydes," 85 J. Royal Microscop. […] 353 (1966)). The collagen-BSA gel was formulated by Flitney to simulate the cytoplasm of the cell. Diffusion of BSA from the gel was intended to provide a reproducible model by which the relative change in the rate of leakage of protein through the cell membrane could be monitored during fixation with different techniques. This procedure was also modified as described in Example III to allow the evaluation of the depth of penetration of the composition of the present invention into adjoining cells of the pulpal tissue. The second assay was the determination of residual lactate dehydrogenase activity (LDH) in bovine pulp following treatment with the composition of the present invention.
The effectiveness of the pulpotomy agent prepared as described in Example I, above, was also evaluated by an assay for residual LDH Activity. In this assay, calf pulp was harvested from freshly extracted molars, minced into pieces of approximately 1 mm^3, divided into aliquots weighing approximately 0.5 g, and stored at -20° C. until used. After thawing each aliquot was wet weighed and incubated in the 4% glutaraldehyde-containing pulpotomy agent prepared as described in Example I for 4 minutes. The treated sample was homogenized for one minute in ten ml of 0.2M Tris, pH 7.3, using a homogenizer. Following centrifugation for ten minutes at 300 rpm on a clinical centrifuge, the supernatant was decanted. One hundred microliters of the supernatant was added to a cuvette containing 2.8 ml Tris HCl, 1.0 ml of […], and 0.1 ml of 30 mM sodium pyruvate and vortexed for 10 seconds. The change in absorbence per minute was recorded on a spectrophotometer at 345 nm at room temperature. The activities were calculated as units/g wet weight/min, and the mean was calculated for five samples in each group. The values are reported as a percentage of controls and statistics were the same as described in Example II, above.

[2] = target: bovine serum albumin (BSA) in collagen-BSA gels (Bos taurus, UniProt P02769); test: Penetration (depth of fixation) assay: collagen-BSA gels submerged intact in vials
Source text: as §1

[3] = target: bovine serum albumin (BSA) in collagen-BSA gel wafers (Bos taurus, UniProt P02769); test: Collagen-BSA gel wafer assay: BSA diffusing from gel after fixation; settings: for % of control retained (diluted 10 fold) / % change relative to fresh glutaraldehyde / % of control retained / % change relative to freshly prepared 4% glutaraldehyde: diluted 10 fold
Source text: as §1
The effectiveness of the fixative ability of the pulpotomy agent of the present invention was assayed according to the method set out in Flitney, supra. Briefly, that method is as follows. Collagen gels (0.3 g/2.8 ml) were prepared containing a physiological salt solution and bovine serum albumin (1 g BSA/10 ml). The mixture was dissolved in a boiling water bath and measured amounts were pipetted into plastic vials. Collagen-BSA wafers were removed from the vials and incubated in a buffered glutaraldehyde solution and the 4% glutaraldehyde-containing pulpotomy agent prepared as described in Example I, above, for 4 minutes. Wafers treated with distilled water or sodium phosphate buffer for identical time periods were used as respective controls. Following incubation, relative fixation of protein in the gels was ascertained by measuring the amount of BSA which diffuses from the gels into 4 ml of water during a 30 minute period. BSA was quantified by the method described by Bradford, M. M., "A rapid and sensitive method for quantification of microgram quantities of protein utilizing the principles of protein dye binding," 72 Anal. Biochem. 248 (1976).
The quantity of BSA which diffused from each gel is reported below as a percentage of control lost or retained.

[4] = stored at room temperature (25° C.) for eight months

bovine serum albumin (BSA) in collagen-BSA gel wafers, sequence (P02769 25-607): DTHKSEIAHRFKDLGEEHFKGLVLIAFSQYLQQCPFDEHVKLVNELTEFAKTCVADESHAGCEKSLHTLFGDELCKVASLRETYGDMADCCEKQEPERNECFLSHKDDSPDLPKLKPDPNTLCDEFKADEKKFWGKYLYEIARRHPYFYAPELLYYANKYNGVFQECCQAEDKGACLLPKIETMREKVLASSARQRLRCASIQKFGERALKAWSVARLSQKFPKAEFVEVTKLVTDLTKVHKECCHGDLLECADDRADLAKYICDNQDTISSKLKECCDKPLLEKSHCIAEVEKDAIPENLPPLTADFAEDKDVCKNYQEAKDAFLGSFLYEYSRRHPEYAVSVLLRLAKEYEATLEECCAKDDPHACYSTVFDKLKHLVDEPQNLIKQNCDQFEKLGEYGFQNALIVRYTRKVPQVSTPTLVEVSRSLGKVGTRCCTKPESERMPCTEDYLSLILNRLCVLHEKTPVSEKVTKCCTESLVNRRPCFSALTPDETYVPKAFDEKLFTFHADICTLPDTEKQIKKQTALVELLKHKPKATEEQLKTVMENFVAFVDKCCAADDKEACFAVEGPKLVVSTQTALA
bovine serum albumin (BSA) in collagen-BSA gels, sequence (P02769 25-607): as above

O=CCCCC=O [4% Glutaraldehyde, glutaraldehyde]
% of control retained (LDH activity) ([1]; Fresh, mean of 5 samples): 6% | % of control retained (residual LDH activity) ([1]; calf pulp incubated 4 minutes, five samples): 3.0% | LDH inhibition versus concentration ([1]; different concentrations for any treatment time, FIG. 3): log-dose response | % of control retained (LDH activity) [1, 4]: 3% | % of control retained (LDH activity) ([1]; stored in the cold (5° C.) for eight months): 4% | secondary diffusion of BSA (depth of penetration) ([2]; 2, 4, and 8 percent solutions, FIG. 2): decreased by approximately the same amount | % of control retained (BSA in gel, penetration) ([2]; vials with gels intact submerged 4 minutes, five samples): 27% | % of control retained (diluted 10 fold) ([3]; Fresh, mean of four samples): 80% | % of control gel retained ([3]; Fresh, heat assay, mean of four samples): 80% | % of control retained (undiluted solutions) ([3]; Fresh, mean of six samples): 85% | % change relative to fresh glutaraldehyde ([3]; Heated at 37° C. for 3 Months): -34% | % of control retained ([3]; Heated at 37° C. for 3 Months): 53% | % of control gel retained ([3]; Heated: storage at 37° C. for three months): 53% | % change relative to fresh glutaraldehyde ([3]; Stored at 25° C. for 3 Months): -21% | % of control retained ([3]; Stored at 25° C. for 3 Months): 63% | % change relative to freshly prepared 4% glutaraldehyde ([3]; cold nine months): -8% | % of control retained ([3]; made up fresh, mean of four samples): 80% | % change relative to freshly prepared 4% glutaraldehyde ([3]; room temperature nine months): -11% | % of control retained (undiluted solutions) [3, 4]: 85% | % of control retained (diluted 10 fold) ([3]; stored at room temperature for nine months): 72% | % of control retained (undiluted solutions) ([3]; stored cold (5° C.) for eight months): 85% | % of control retained (diluted 10 fold) ([3]; stored in the cold for nine months): 72% | % of control retained (BSA in gel) ([3]; wafers incubated 4 minutes, BSA diffusing into 4 ml water during 30 minutes, five samples): 78%

Source: patent US4859186A, “Pulpotomy agent and method of use” (priority 1988, dated 1989)
